Experimental data from US7842684B2, “Diphenylazetidinone derivatives possessing cholesterol absorption inhibitor activity” (AstraZeneca AB, priority 2006, dated 2010).

Tests used:
[1] = Absorption in a Caco-2 cells model; type: in vitro ADME; settings: human
Protocol: Absorption of the compounds of formula (I) was tested in a Caco-2 cells model (Gastroenterology 1989, 96, 736): […]

[2] = test system: 14C-cholesterol absorption; assay: In Vivo Testing of Cholesterol Absorption Inhibitors (A); settings: 0.2 μmol/kg by gavage, procedure A, C57BL/6 female mice
Protocol: In Vivo Testing of Cholesterol Absorption Inhibitors (A)
C57BL/6 female mice were maintained on regular chow diet and housed in individual cages to collect faeces. Mice were fasted for 3 hours and then gavaged with vehicle or compound. Half an hour later the mice were gavaged with radiolabelled cholesterol. Six hours after the ^14C-cholesterol gavage blood samples were taken via the tail and plasma prepared to determine how much cholesterol were absorbed. 24 hours after the gavage of ^14C-cholesterol the mice were bled and plasma were prepared for analysis. Faeces were collected for 24 hours to assess absorption efficiency.

Papp [1] [×10⁻⁶ cm/s] | Structure (SMILES) | inhibition of 14C-cholesterol absorption [2] [%]
0.04 | CS(=O)(=O)NCC#Cc1ccc(N2C(=O)[C@H](SC[C@H](O)c3ccc(F)cc3)[C@H]2c2ccc(OCC(=O)NCC(=O)N[C@H](CC3CCCCC3)C(=O)O)cc2)cc1 [Example 1, N-({4-[(2R,3R)-3-{[(2R)-2-(4-fluorophenyl)-2-hydroxyethyl]thio}-1-(4-{3-[(methylsulfonyl)amino]prop-1-yn-1-yl}phenyl)-4-oxoazetidin-2-yl]phenoxy}acetyl)glycyl-3-cyclohexyl-D-alanine] | –
0.02 | CC(C)[C@@H](NC(=O)CNC(=O)COc1ccc([C@@H]2[C@@H](SC[C@H](O)c3ccc(F)cc3)C(=O)N2c2ccc(C#CCNS(C)(=O)=O)cc2)cc1)C(=O)O [Example 2, N-({4-[(2R,3R)-3-{[(2R)-2-(4-fluorophenyl)-2-hydroxyethyl]thio}-1-(4-{3-[(methylsulfonyl)amino]prop-1-yn-1-yl}phenyl)-4-oxoazetidin-2-yl]phenoxy}acetyl)glycyl-D-valine] | –
– | CS(=O)(=O)NCC#Cc1ccc(N2C(=O)[C@H](SC[C@H](O)c3ccc(F)cc3)[C@H]2c2ccc(OCC(=O)NCC(=O)O)cc2)cc1 [Example 6, N-({4-[(2R,3R)-3-{[(2R)-2-(4-fluorophenyl)-2-hydroxyethyl]thio}-1-(4-{3-[(methylsulfonyl)amino]prop-1-yn-1-yl}phenyl)-4-oxoazetidin-2-yl]phenoxy}acetyl)glycine] | 90
